The NIST ThermoML archive (doi:10.1021/je800335v)

Columns and labels:
[1] = molar heat capacity at constant pressure; conditions: 101.33 kPa, Liquid, Small sample (50 mg) DSC
[2] = molar heat capacity at constant pressure; xn = mol fraction of the nth substance listed; conditions: 298 K, 101 kPa, Liquid, Small sample (50 mg) DSC

CCCC[N+]1(C)CCCC1.FC(F)(F)C(F)(F)[P-](F)(F)(F)(C(F)(F)C(F)(F)F)C(F)(F)C(F)(F)F
[1]
Conditions	molar heat capacity at constant pressure [J/K/mol]
293 K	767
298 K	769
303 K	773
308 K	776
313 K	781
318 K	785
323 K	788
328 K	791
333 K	796
338 K	799
343 K	803
348 K	806
353 K	809
358 K	812

CCCC[n+]1ccn(C)c1.O=S(=O)([N-]S(=O)(=O)C(F)(F)F)C(F)(F)F + CCCCn1cc[n+](C)c1.[Cl-]
[2]
Conditions	molar heat capacity at constant pressure [J/K/mol]
x2 = 0.0919	549
x2 = 0.2394	515
x2 = 0.4129	468
x2 = 0.5832	420

CCCCCCCCn1cc[n+](C)c1.O=S(=O)([N-]S(=O)(=O)C(F)(F)F)C(F)(F)F
[1]
Conditions	molar heat capacity at constant pressure [J/K/mol]
293 K	724
298 K	733
303 K	741
308 K	748
313 K	756
318 K	765
323 K	773
328 K	779
333 K	788
338 K	795
343 K	803
348 K	810
353 K	817
358 K	825

CCCCCC[n+]1ccn(C)c1.O=S(=O)([N-]S(=O)(=O)C(F)(F)F)C(F)(F)F
[1]
Conditions	molar heat capacity at constant pressure [J/K/mol]
293 K	669
298 K	667
303 K	667
308 K	668
313 K	671
318 K	673
323 K	675
328 K	676
333 K	679
338 K	680
343 K	683
348 K	685
353 K	687
358 K	689

CCCCn1cc[n+](C)c1.O=S(=O)([O-])C(F)(F)F [1-butyl-3-methylimidazolium trifluoromethanesulfonate]
[1]
Conditions	molar heat capacity at constant pressure [J/K/mol]
293 K	455
298 K	457
303 K	459
308 K	461
313 K	465
318 K	469
323 K	473
328 K	477
333 K	481
338 K	486
343 K	490
348 K	495
353 K	500
358 K	504

CCCCCCCCCCCCCC[P+](CCCCCC)(CCCCCC)CCCCCC.O=S(=O)([N-]S(=O)(=O)C(F)(F)F)C(F)(F)F
[1]
Conditions	molar heat capacity at constant pressure [J/K/mol]
293 K	1366
298 K	1366
303 K	1368
308 K	1372
313 K	1379
318 K	1384
323 K	1389
328 K	1389
333 K	1395
338 K	1397
343 K	1402
348 K	1405
353 K	1409
358 K	1413

CCCC[N+]1(C)CCCC1.O=S(=O)([N-]S(=O)(=O)C(F)(F)F)C(F)(F)F
[1]
Conditions	molar heat capacity at constant pressure [J/K/mol]
293 K	630
298 K	629
303 K	632
308 K	639
313 K	644
318 K	650
323 K	654
328 K	656
333 K	659
338 K	661
343 K	660
348 K	659
353 K	658

CCOS(=O)(=O)[O-].CCn1cc[n+](C)c1 [1-ethyl-3-methylimidazolium ethyl sulfate]
[1]
Conditions	molar heat capacity at constant pressure [J/K/mol]
293 K	388
298 K	389
303 K	391
308 K	394
313 K	398
318 K	402
323 K	406
328 K	410
333 K	415
338 K	420
343 K	427
348 K	433
353 K	440
358 K	447

CCCC[n+]1ccn(C)c1.O=S(=O)([N-]S(=O)(=O)C(F)(F)F)C(F)(F)F
[1]
Conditions	molar heat capacity at constant pressure [J/K/mol]
293 K	595
298 K	599
303 K	603
308 K	607
313 K	612
318 K	617
323 K	621
328 K	624
333 K	628
338 K	631
343 K	634
348 K	636
353 K	639
358 K	641

CCn1cc[n+](C)c1.O=S(=O)([N-]S(=O)(=O)C(F)(F)F)C(F)(F)F
[1]
Conditions	molar heat capacity at constant pressure [J/K/mol]
293 K	523
298 K	525
303 K	527
308 K	529
313 K	533
318 K	535
323 K	538
328 K	539
333 K	542
338 K	545
343 K	547
348 K	548
353 K	550
358 K	551

CCCCn1cc[n+](C)c1.O=S(=O)([O-])C(F)(F)F [1-butyl-3-methylimidazolium trifluoromethanesulfonate] + O
[2]
Conditions	molar heat capacity at constant pressure [J/K/mol]
x2 = 0.0108	448
x2 = 0.137	401
x2 = 0.3379	325
x2 = 0.5215	257
